According to patent publication US12630498B2 (Genzyme Corporation, priority 2019, dated 2026):
pEC50: −log10 of the molar value.

Biological target: T1, human Cystic Fibrosis Transmembrane Conductance Regulator (CFTR) harboring the ΔF508 mutation (Homo sapiens, UniProt P13569, DEL508-508)
T1 construct: expressed in transfected cells; host or cells: H441 carcinoma line (G418-selected)
Assay: H441 cell ΔF508-CFTR-HRP cell surface assay (Emax and EC50)
Format: cell-based
Conditions: for Emax: NCI-H441, NA = Not active
Text: Example 315: H441 Cell Emax and EC50 Two cell lines were used, the H441 carcinoma line and the CFHBE41o- (41o-) human bronchial epithelial line. Both cell lines expressed human Cystic Fibrosis Transmembrane Conductance Regulator (CFTR) harboring the ΔF508 mutation and with an in-frame fusion in CFTR extracellular loop 4 of Horse Radish Peroxidase (HRP) under control of the CMV promoter. In the presence of the HRP tag, ΔF508-CFTR transported to the cell surface was detectable upon addition of an HRP substrate (Luminata Forte). Both cell types were cultivated at 37° C. with CO2. […] For both cell types, the medium was changed every other day unless the culture was at low % confluence. Cells were used for the assays at 75% confluence. To a polypropylene (PP) 384-well plate, 15 pls DMSO was added to all wells in columns 1-22 and 24 (low Control). 15 μls of 260 μM VX809 (Lumacaftor), Selleckchem […], was added to column 23 wells (high Control). 15 pls of 10 mM test compound or VX809 (control) were added to wells of row A. Serial dilutions of Row A compound were performed 2×15 pls in rows A through 0 (15-point). A PP, 384-well plate containing the appropriate cell culture medium was prepared for each assay plate with 100 pls per well. For the doxycycline-induced 41o-cells, doxycycline for both the assay plate and the medium dilution plate was added at 0.0005 mg/ml to the medium. Both cell lines were plated for the assay at 30 pls per 384-well at 3.4×10 e^5 cells per ml ( 10K cells/well). H441 cells were plated on opaque, white, Corning plate 3704. 41o-cells were plated on collagen-coated opaque, white, Corning plate 356665. For 41o-cells, doxycycline was added to the medium. Using FX (Beckman) protocol, 10 pls diluted compound or medium was added per well to the Assay Plate as: 2 pls DMSO Dilution plate well was diluted in 100 pls of the Medium Dilution Plate well, mixed, and 10 pls was transferred to the Assay Plate. The final assay dilution series was 24.5, 12.3, 6.1, 3.1, 1.5, 0.8, 0.4, 0.2, 0.1, 0.05, 0.02, 0.01, 0.006, 0.003, 0.001 and 0 μM. The 41o-assay plates were incubated at 37° C. w/CO2, the H441 assay plates were incubated at 27° C. w/CO2, each overnight for two nights. After being brought to room temperature, the assay plate liquid was removed. 30 uls of Luminata Forte (Millipore ELLUF0100) was added per well and incubated at room temperature for 10 min. The plates were then read on a Topcount, protocol LumiMatti (CPS, luminescence). The data was analyzed for % of maximum, maximum VX809 signal, and EC50 using Pearl and SPEED tools.

T1 sequence (P13569 with tags, fused parts or gaps DEL508-508): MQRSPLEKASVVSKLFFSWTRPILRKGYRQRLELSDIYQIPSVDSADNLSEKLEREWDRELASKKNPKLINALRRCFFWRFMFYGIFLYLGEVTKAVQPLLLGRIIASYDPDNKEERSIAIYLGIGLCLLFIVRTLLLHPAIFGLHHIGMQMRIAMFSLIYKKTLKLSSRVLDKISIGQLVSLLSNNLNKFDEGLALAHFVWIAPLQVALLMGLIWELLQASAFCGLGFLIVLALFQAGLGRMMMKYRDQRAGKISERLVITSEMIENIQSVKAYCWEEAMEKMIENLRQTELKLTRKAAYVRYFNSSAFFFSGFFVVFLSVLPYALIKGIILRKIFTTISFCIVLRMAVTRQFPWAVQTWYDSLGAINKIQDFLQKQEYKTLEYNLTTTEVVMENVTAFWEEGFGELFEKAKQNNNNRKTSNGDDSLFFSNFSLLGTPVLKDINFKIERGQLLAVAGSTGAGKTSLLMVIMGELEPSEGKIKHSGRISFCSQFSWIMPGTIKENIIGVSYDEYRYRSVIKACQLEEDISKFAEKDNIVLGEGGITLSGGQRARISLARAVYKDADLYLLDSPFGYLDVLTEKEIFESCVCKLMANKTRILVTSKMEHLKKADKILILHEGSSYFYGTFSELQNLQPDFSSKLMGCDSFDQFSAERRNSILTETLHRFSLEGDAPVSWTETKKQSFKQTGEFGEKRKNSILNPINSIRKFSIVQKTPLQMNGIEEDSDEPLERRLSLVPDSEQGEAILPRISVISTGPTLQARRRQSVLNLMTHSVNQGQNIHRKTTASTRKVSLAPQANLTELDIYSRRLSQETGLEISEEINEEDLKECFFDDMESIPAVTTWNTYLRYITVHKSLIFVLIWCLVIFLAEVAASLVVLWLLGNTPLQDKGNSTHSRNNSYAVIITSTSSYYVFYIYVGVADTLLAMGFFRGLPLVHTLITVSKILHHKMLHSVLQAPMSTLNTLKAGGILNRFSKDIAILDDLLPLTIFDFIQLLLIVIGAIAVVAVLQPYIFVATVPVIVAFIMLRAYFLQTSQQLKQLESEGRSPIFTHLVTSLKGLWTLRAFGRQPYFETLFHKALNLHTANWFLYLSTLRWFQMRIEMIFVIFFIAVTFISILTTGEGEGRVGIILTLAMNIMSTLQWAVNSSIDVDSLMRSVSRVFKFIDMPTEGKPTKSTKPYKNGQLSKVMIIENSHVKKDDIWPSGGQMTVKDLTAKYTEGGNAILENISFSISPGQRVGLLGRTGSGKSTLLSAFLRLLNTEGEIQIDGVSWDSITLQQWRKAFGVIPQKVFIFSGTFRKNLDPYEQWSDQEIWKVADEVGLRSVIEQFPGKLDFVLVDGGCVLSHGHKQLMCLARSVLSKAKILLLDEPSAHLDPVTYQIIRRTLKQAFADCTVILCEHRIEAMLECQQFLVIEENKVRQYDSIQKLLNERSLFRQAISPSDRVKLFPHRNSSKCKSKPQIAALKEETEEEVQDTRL

With COc1ccc2c(OCc3ccc(SC(F)(F)F)cc3)c(C(=O)N[C@H](C(=O)O)C3CCCC3)ccc2c1 [Example 162, (S)-2-cyclopentyl-2-(6-methoxy-1-((4-((trifluoromethyl)thio)benzyl)oxy)-2-naphthamido)acetic Acid] as the compound, how does the pEC50 read?
Its pEC50 is 5.80.

And the Emax?
The Emax was 26%.

What does the source list for CCC(C)(C)[C@H](NC(=O)c1ccc2ccccc2c1OCc1ccc(S(C)(=O)=O)cc1)C(=O)O [Example 53, (S)-3,3-dimethyl-2-(1-((4-(methylsulfonyl)benzyl)oxy)-2-naphthamido)pentanoic Acid]?
pEC50: 4.64; Emax: 19.8%

CC(C)(C)[C@H](NC(=O)c1ccc2ccccc2c1OCc1ccncc1)C(=O)O [Example 232, (2S)-3,3-dimethyl-2-[[1-(4-pyridylmethoxy)naphthalene-2-carbonyl]amino]butanoic Acid] was tested. Which pEC50 did it give?
Its pEC50 is 5.51.

What about the Emax of the same compound?
Its Emax is 8.5%.

With CC1(C(NC(=O)c2ccc3cc(F)ccc3c2OCC2CCC(F)(F)CC2)C(=O)O)CCCCC1 (stereo not drawn) [Example 54, 2-(1-((4,4-difluorocyclohexyl)methoxy)-6-fluoro-2-naphthamido)-2-(1-methylcyclohexyl)acetic Acid] as the compound, how does the pEC50 read?
Its pEC50 is 5.62.

What about the Emax of the same compound?
The Emax was 56.1%.

With CC(C)(C)C[C@H](NC(=O)c1ccc2ccccc2c1OC[C@H]1CC[C@@H](C(F)(F)F)CC1)C(=O)O [Example 180, (S)-4,4-dimethyl-2-(1-(((1s,4R)-4-(trifluoromethyl)cyclohexyl)methoxy)-2-naphthamido)pentanoic Acid] as the compound, how does the pEC50 read?
Its pEC50 is 5.00.

What about the Emax of the same compound?
The Emax was 70.7%.

O=C(N[C@@H](Cc1ccccc1)C(=O)O)c1ccc2ccccc2c1OCc1ccc(C(F)(F)F)cc1 [Example 87, (1-((4-(trifluoromethyl)benzyl)oxy)-2-naphthoyl)-L-phenylalanine] was tested. Which pEC50 did it give?
The pEC50 was 5.68.

What about the Emax of the same compound?
The Emax was 103%.

Which results are given for O=C(N[C@H](C(=O)O)C(c1ccccc1)c1ccccc1)c1ccc2cc(F)ccc2c1OCc1ccc(Cl)c(Cl)c1 [Example 209, (S)-2-(1-((3,4-dichlorobenzyl)oxy)-6-fluoro-2-naphthamido)-3,3-diphenylpropanoic Acid]?
pEC50: 6.40; Emax: 71%

N#Cc1ccc(C[C@H](NC(=O)c2ccc3ccccc3c2OCc2ccc(C(F)(F)F)cc2)C(=O)O)cc1 [Example 107, (S)-3-(4-cyanophenyl)-2-(1-((4-(trifluoromethyl)benzyl)oxy)-2-naphthamido)propanoic Acid] was tested. Which pEC50 did it give?
The pEC50 was 4.96.

And the Emax?
The Emax was 63.4%.

O=C(N[C@H](C(=O)O)C12CC(C(F)(F)F)(C1)C2)c1ccc2cc(F)ccc2c1OCc1ccc(OC(F)(F)F)cc1 [Example 4, (S)-2-(6-fluoro-1-((4-(trifluoromethoxy)benzyl)oxy)-2-naphthamido)-2-(3-(trifluoromethyl)bicyclo[1.1.1]pentan-1-yl)acetic Acid] was tested. Which pEC50 did it give?
Its pEC50 is 6.15.

And the Emax?
Its Emax is 37.2%.

How did the pEC50 turn out when N#Cc1ccc(COc2c(C(=O)N[C@@H](Cc3ccccc3)C(=O)O)ccc3ccccc23)cc1 [Example 125, (1-((4-cyanobenzyl)oxy)-2-naphthoyl)-L-phenylalanine] was run?
The pEC50 was 4.69.

And the Emax?
The Emax was 31.5%.

What does the source list for CCC(C)(C)[C@H](NC(=O)c1ccc2c(F)cc(C)cc2c1OCc1ccc(OC(F)(F)F)cc1)C(=O)O [Example 273, (2S)-2-[[5-fluoro-7-methyl-1-[[4-(trifluoromethoxy)phenyl]methoxy]naphthalene-2-carbonyl]amino]-3,3-dimethyl-pentanoic Acid]?
pEC50: 7.00; Emax: 339%

Which Emax does the source give for CC(Oc1c(C(=O)N[C@@H](Cc2ccccc2)C(=O)O)ccc2ccccc12)c1ccc(Br)cc1 (stereo partly drawn) [Example 123, (1-(1-(4-bromophenyl)ethoxy)-2-naphthoyl)-L-phenylalanine] here?
The Emax was 4%.

CC(C)(O)[C@H](NC(=O)c1ccc2ccccc2c1OCc1ccc(C(F)(F)F)cc1)C(=O)O [Example 138, (S)-3-hydroxy-3-methyl-2-(1-((4-(trifluoromethyl)benzyl)oxy)-2-naphthamido)butanoic Acid] was tested. Which pEC50 did it give?
The pEC50 was 4.79.

What about the Emax of the same compound?
The Emax was 22.4%.

With O=C(N[C@H](C(=O)O)C1CCCC1)c1ccc2cc(F)ccc2c1OCc1ccc(S(F)(F)(F)(F)F)cc1 [Example 113, (S)-2-cyclopentyl-2-(6-fluoro-1-((4-(pentafluoro-16-sulfanyl)benzyl)oxy)-2-naphthamido)acetic Acid] as the compound, how does the pEC50 read?
Its pEC50 is 5.43.

What about the Emax of the same compound?
Its Emax is 58.2%.

Which results are given for C[C@@H](OCc1ccccc1)C(NC(=O)c1ccc2ccccc2c1OCC1CC2CCC1C2)C(=O)O (stereo partly drawn) [Example 147, (3R)-3-(benzyloxy)-2-(1-(bicyclo[2.2.1]heptan-2-ylmethoxy)-2-naphthamido)butanoic Acid]?
pEC50: 4.77; Emax: 68.9%

How did the pEC50 turn out when CC1([C@H](NC(=O)c2ccc3cc(F)ccc3c2OCc2ccc(OC(F)(F)F)cc2)C(=O)O)CC1 [Example 30, (S)-2-(6-fluoro-1-((4-(trifluoromethoxy)benzyl)oxy)-2-naphthamido)-2-(1-methylcyclopropyl)acetic Acid] was run?
Its pEC50 is 5.70.

And the Emax?
The Emax was 57.5%.

CS(=O)(=O)c1ccc(COc2c(C(=O)N[C@H](C(=O)O)C3CCCC3)ccc3ccccc23)cc1 [Example 159, (S)-2-cyclopentyl-2-(1-((4-(methylsulfonyl)benzyl)oxy)-2-naphthamido)acetic Acid] was tested. Which pEC50 did it give?
The pEC50 was 5.17.

What about the Emax of the same compound?
Its Emax is 22.8%.

What does the source list for CCC(C)(C)[C@H](NC(=O)c1ccc2cc(F)ccc2c1OCC1CCC(F)(F)CC1)C(=O)O [Example 34, (S)-2-(1-((4,4-difluorocyclohexyl)methoxy)-6-fluoro-2-naphthamido)-3,3-dimethylpentanoic Acid]?
pEC50: 5.42; Emax: 78.4%

O=C(NC(C(=O)O)C(C(F)(F)F)C(F)(F)F)c1ccc2ccccc2c1OCC1CCCCC1 (stereo not drawn) [Example 183, 2-(1-(cyclohexylmethoxy)-2-naphthamido)-4,4,4-trifluoro-3-(trifluoromethyl)butanoic Acid] was tested. Which pEC50 did it give?
The pEC50 was 5.49.

What about the Emax of the same compound?
The Emax was 63.9%.

With COc1ccc2c(OCc3ccc(SC(F)(F)F)cc3)c(C(=O)N[C@H](C(=O)O)C(C)(C)C)ccc2c1 [Example 63, (S)-2-(6-methoxy-1-((4-((trifluoromethyl)thio)benzyl)oxy)-2-naphthamido)-3,3-dimethylbutanoic Acid] as the compound, how does the pEC50 read?
The pEC50 was 5.82.

What about the Emax of the same compound?
Its Emax is 43.6%.

CC(C)(C)C[C@H](NC(=O)c1ccc2cc(F)ccc2c1OCc1ccc(S(F)(F)(F)(F)F)cc1)C(=O)O [Example 112, (S)-2-(6-fluoro-1-((4-(pentafluoro-16-sulfanyl)benzyl)oxy)-2-naphthamido)-4,4-dimethylpentanoic Acid] was tested. Which pEC50 did it give?
Its pEC50 is 5.72.

And the Emax?
The Emax was 58.1%.

COC(=O)[C@H](Cc1ccccc1)NC(=O)c1ccc2ccccc2c1OCc1ccc(Cl)c(Cl)c1 [Example 101, Methyl (1-((3,4-dichlorobenzyl)oxy)-2-naphthoyl)-L-phenylalaninate] was tested. Which pEC50 did it give?
The pEC50 was 5.17.

And the Emax?
Its Emax is 79.1%.

How did the pEC50 turn out when O=C(N[C@@H](Cc1ccccc1)C(=O)O)c1ccc2ccccc2c1OCc1ccc2c(c1)OCO2 [Example 121, (1-(benzo[d][1,3]dioxol-5-ylmethoxy)-2-naphthoyl)-L-phenylalanine] was run?
The pEC50 was 6.70.

What about the Emax of the same compound?
Its Emax is 3.7%.

What does the source list for CC(C)(C)C#CCOc1c(C(=O)N[C@H](C(=O)O)C(C)(C)C)ccc2cc(F)ccc12 [Example 266, (2S)-2-[[1-(4,4-dimethylpent-2-ynoxy)-6-fluoro-naphthalene-2-carbonyl]amino]-3,3-dimethyl-butanoic Acid]?
pEC50: 5.27; Emax: 149%

How did the pEC50 turn out when C[C@@H](OCc1ccccc1)C(NC(=O)c1ccc2ccccc2c1OCc1nc2ccccc2s1)C(=O)O (stereo partly drawn) [Example 148, (3R)-2-(1-(benzo[d]thiazol-2-ylmethoxy)-2-naphthamido)-3-(benzyloxy)butanoic Acid] was run?
Its pEC50 is 4.74.

What about the Emax of the same compound?
The Emax was 65.2%.

CC(C)(SC1CCCC1)[C@H](NC(=O)c1ccc2ccccc2c1OCc1ccc(S(C)(=O)=O)cc1)C(=O)O [Example 171] was tested. Which Emax did it give?
The Emax was 16.4%.

How did the pEC50 turn out when CC(C)(C)C[C@H](NC(=O)c1ccc2cc(F)ccc2c1OCc1ccc(SC(F)(F)F)cc1)C(=O)O [Example 117, (S)-2-(6-fluoro-1-((4-((trifluoromethyl)thio)benzyl)oxy)-2-naphthamido)-4,4-dimethylpentanoic Acid] was run?
Its pEC50 is 5.80.

And the Emax?
The Emax was 47%.

With CC(C)(C)[C@H](NC(=O)c1ccc2ccccc2c1OCc1ccc(C(F)(F)F)cn1)C(=O)O [Example 2, (S)-3,3-dimethyl-2-(1-((5-(trifluoromethyl)pyridin-2-yl)methoxy)-2-naphthamido)butanoic Acid] as the compound, how does the pEC50 read?
The pEC50 was 5.32.

And the Emax?
The Emax was 151%.
